Reference: patent publication US10973771B2, “Method of making particles for use in a pharmaceutical composition” (VECTURA LIMITED, priority 2000, dated 2021)

Assay: Fine particle fraction, capsule fired from twin stage impinger (TSI)
Assay type: physicochemical
Settings: 20mg capsule fired from a twin stage impinger
Description: The 3:1 and the 19:1 blends were then each loaded into a 20mg capsule and fired from a twin stage impinger. A sample of unprocessed salbutamol sulphate was also fired from the TSI to provide a comparison.

- Fine Particle Fraction %: 28%
Substance: salbutamol sulphate
